Biological target: T1, M3 muscarinic receptor subtype (hM3) (Homo sapiens, UniProt P20309)
T1 construct: expressed in transfected cells
Assay: Radioligand binding assay ([3H]-NMS displacement, CHO cell membranes)
Details: [3H]-NMS 1 nM
Protocol: CHO cell lines stably expressing cloned human hM1, hM2, hM3 and hM4 muscarinic receptor subtypes, respectively, were grown to near confluency in medium consisting of HAM's F-12 supplemented with 10% FBS and 250 μg/mL Geneticin. The cells were grown in a 5% CO2, 37° C. incubator and lifted with 2 mM EDTA in dPBS. Cells were collected by 5 minute centrifugation at 650×g, and cell pellets were either stored frozen at −80° C. or membranes were prepared immediately. For membrane preparation, cell pellets were resuspended in lysis buffer and homogenized with a Polytron PT-2100 tissue disrupter (Kinematica AG; 20 seconds×2 bursts). Crude membranes were centrifuged at 40,000×g for 15 minutes at 4° C. […] The protein concentration of the membrane suspension was determined by the method described in Lowry, O. et al., Journal of Biochemistry 193:265 (1951). […]
Radioligand binding assays were performed in 96-well microtiter plates in a total assay volume of 100 μL. […] Filter plates were rinsed three times with wash buffer (10 mM HEPES) to remove unbound radioactivity. […] The plates were then counted in a PerkinElmer Topcount liquid scintillation counter (PerkinElmer Inc., Wellesley, Mass.). Binding data were analyzed by nonlinear regression analysis with the GraphPad Prism Software package (GraphPad Software, Inc., San Diego, Calif.) using the one-site competition model. […]

T1 sequence (P20309 whole entry): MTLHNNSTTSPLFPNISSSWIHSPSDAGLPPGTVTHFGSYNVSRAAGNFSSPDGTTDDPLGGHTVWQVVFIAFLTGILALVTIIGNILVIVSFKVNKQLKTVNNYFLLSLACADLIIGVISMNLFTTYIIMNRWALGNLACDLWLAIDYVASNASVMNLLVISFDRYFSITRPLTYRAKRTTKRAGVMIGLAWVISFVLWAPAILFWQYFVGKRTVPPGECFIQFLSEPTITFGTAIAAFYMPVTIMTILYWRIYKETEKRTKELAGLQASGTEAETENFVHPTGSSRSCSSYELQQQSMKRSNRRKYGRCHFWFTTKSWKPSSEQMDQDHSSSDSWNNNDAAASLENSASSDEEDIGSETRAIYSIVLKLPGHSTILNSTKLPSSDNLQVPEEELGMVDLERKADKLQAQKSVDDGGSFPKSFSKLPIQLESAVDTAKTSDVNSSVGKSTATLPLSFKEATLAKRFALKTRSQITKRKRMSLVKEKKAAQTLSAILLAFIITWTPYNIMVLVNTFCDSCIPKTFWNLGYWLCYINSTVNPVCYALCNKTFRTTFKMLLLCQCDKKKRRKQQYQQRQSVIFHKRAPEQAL

Q: For `CN(CCN1CCC(OC(=O)Nc2ccccc2-c2ccccc2)CC1)C(=O)CCCCCN1CCC(C(N)=O)CC1` [Example 1, Biphenyl-2-ylcarbamic Acid 1-(2-{[6-(4-Carbamoylpiperidin-1-yl)hexanoyl]methylamino}ethyl)piperidin-4-yl Ester], which Ki is on record?
A: Its Ki is less than 5 nM.

— patent publication US8067439B2, “Biphenyl compounds useful as muscarinic receptor antagonists” (Theravance, Inc., priority 2004, dated 2011)
